In patent US20250353864A1, “INDAZOLE CONTAINING MACROCYCLES AND THEIR USE” (BLOSSOMHILL THERAPEUTICS, INC., priority 2022, published 2025):

Tests used:
Format in all cases: biochemical
EGFR WT = EGFR WT (Homo sapiens (Human), UniProt P00533); assay: HotSpot radiometric kinase assay (Reaction Biology), EGFR WT; conditions: 10 μM ATP
Experimental: (§1) Biochemical Assays for Inhibition of Wild-Type and Mutant EGFRs
(§2) Briefly, specific kinase/substrate pairs along with required cofactors were prepared in reaction buffer; 20 mM Hepes pH 7.5, 10 mM […], 1 mM EGTA, 0.02% Brij35, 0.02 mg/ml BSA, 0.1 mM Na3VO4, 2 mM DTT, 1% DMSO. Compounds were delivered into the reaction, followed […] later by addition of a mixture of ATP (Sigma, St. Louis MO) and ^33P ATP (Perkin Elmer, Waltham MA) to a final concentration of 10 μM. Reactions were carried out at room temperature for 120 min, followed by spotting of the reactions onto P81 ion exchange filter paper (Whatman Inc., Piscataway, NJ). Unbound phosphate was removed by extensive washing of filters in 0.75% phosphoric acid. […] IC50 values and curve fits were obtained using Prism (GraphPad Software).

[1] = biological target: EGFR Δ746-750/C797S mutant (Homo sapiens (Human), UniProt P00533, C797S/DEL746-750); assay: HotSpot radiometric kinase assay, EGFR Δ746-750/C797S mutant; conditions: 10 μM ATP
Chain of EGFR Δ746-750/C797S mutant (P00533 other isoform, or with tags, fused parts or gaps C797S/del 1-668/del 746-750 limits assumed): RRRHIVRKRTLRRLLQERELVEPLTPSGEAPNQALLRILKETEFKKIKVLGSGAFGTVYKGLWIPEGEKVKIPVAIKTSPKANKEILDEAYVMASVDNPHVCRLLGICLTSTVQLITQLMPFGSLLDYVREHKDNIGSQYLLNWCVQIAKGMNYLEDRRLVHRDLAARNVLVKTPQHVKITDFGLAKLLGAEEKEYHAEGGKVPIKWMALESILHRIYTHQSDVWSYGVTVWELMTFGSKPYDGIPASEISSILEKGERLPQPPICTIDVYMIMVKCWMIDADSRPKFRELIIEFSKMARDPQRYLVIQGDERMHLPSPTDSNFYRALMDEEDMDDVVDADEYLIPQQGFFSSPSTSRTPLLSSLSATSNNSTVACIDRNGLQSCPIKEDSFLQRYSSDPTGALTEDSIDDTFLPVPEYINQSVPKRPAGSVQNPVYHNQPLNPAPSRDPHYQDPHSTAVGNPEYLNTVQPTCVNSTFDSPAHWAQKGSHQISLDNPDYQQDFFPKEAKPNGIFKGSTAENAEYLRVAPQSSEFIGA
Experimental: as §1, §2

EGFR L858R mutant = EGFR L858R mutant (Homo sapiens (Human), UniProt P00533, L858R); assay: HotSpot radiometric kinase assay, EGFR L858R mutant; conditions: 10 μM ATP
Chain of EGFR L858R mutant (P00533 25-1210 L858R): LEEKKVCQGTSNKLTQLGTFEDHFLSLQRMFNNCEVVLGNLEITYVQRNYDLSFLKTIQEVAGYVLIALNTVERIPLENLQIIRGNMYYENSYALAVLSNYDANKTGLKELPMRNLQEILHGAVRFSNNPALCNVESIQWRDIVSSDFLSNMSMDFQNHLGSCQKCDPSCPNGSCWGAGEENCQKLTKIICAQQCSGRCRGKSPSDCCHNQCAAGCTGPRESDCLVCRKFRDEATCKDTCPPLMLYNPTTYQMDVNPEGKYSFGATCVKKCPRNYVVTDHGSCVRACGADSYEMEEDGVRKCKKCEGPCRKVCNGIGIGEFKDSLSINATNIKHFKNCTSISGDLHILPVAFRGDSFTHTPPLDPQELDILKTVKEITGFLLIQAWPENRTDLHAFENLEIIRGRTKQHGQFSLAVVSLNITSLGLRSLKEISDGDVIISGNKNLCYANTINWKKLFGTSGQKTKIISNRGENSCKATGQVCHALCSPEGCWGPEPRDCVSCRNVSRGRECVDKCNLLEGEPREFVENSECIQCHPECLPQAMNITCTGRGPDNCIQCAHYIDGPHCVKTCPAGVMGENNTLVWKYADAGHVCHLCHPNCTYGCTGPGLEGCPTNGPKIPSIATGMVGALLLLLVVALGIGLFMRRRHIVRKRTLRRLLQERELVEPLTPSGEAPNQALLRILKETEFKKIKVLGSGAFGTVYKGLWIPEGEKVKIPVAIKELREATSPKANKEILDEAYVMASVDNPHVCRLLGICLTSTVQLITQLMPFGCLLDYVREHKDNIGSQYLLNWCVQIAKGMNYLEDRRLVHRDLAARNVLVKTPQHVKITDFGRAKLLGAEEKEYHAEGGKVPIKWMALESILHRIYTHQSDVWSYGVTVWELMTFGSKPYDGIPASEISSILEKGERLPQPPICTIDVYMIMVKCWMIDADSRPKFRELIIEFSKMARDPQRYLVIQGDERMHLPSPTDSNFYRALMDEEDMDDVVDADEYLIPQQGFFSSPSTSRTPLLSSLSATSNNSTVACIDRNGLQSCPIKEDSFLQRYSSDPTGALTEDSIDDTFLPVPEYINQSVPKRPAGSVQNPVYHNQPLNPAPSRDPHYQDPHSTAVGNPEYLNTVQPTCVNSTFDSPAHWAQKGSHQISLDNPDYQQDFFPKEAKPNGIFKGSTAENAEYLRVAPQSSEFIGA
Experimental: as §1, §2

EGFR Δ746-750 mutant = EGFR Δ746-750 mutant (Homo sapiens (Human), UniProt P00533, DEL746-750); assay: HotSpot radiometric kinase assay, EGFR Δ746-750 mutant; conditions: 10 μM ATP
Chain of EGFR Δ746-750 mutant (P00533 other isoform, or with tags, fused parts or gaps del 1-668/del 746-750 limits assumed): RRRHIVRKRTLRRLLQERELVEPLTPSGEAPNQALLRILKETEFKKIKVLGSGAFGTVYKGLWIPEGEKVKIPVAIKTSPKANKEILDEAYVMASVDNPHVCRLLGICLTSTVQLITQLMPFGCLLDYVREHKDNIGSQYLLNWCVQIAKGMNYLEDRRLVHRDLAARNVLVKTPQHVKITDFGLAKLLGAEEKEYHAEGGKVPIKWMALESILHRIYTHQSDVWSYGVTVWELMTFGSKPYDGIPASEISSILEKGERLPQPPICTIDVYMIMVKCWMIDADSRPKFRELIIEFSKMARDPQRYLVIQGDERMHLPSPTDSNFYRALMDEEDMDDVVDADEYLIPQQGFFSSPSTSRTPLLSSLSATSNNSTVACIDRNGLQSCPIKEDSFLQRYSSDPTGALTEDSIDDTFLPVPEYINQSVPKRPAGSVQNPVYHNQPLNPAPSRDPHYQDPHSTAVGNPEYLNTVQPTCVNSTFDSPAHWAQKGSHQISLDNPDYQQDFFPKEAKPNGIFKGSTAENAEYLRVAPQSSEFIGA
Experimental: as §1, §2

EGFR L858R/T790M mutant = EGFR L858R/T790M mutant (Homo sapiens (Human), UniProt P00533, L858R/T790M); assay: HotSpot radiometric kinase assay, EGFR L858R/T790M mutant; conditions: 10 μM ATP
Experimental: as §1, §2

EGFR (D770_N771insNPG) = EGFR (D770_N771insNPG) (Homo sapiens (Human), UniProt P00533, INS770NPG); assay: HotSpot radiometric kinase assay, EGFR (D770_N771insNPG); conditions: 10 μM ATP, read-out: EGFR (Δ770_N771insNPG) IC50
Experimental: as §1, §2

[2] = biological target: EGFR L858R/T790M/C797S mutant (Homo sapiens (Human), UniProt P00533, C797S/L858R/T790M); assay: HotSpot radiometric kinase assay, EGFR L858R/T790M/C797S mutant; conditions: 10 μM ATP
Chain of EGFR L858R/T790M/C797S mutant (P00533 25-1210 T790M/C797S/L858R): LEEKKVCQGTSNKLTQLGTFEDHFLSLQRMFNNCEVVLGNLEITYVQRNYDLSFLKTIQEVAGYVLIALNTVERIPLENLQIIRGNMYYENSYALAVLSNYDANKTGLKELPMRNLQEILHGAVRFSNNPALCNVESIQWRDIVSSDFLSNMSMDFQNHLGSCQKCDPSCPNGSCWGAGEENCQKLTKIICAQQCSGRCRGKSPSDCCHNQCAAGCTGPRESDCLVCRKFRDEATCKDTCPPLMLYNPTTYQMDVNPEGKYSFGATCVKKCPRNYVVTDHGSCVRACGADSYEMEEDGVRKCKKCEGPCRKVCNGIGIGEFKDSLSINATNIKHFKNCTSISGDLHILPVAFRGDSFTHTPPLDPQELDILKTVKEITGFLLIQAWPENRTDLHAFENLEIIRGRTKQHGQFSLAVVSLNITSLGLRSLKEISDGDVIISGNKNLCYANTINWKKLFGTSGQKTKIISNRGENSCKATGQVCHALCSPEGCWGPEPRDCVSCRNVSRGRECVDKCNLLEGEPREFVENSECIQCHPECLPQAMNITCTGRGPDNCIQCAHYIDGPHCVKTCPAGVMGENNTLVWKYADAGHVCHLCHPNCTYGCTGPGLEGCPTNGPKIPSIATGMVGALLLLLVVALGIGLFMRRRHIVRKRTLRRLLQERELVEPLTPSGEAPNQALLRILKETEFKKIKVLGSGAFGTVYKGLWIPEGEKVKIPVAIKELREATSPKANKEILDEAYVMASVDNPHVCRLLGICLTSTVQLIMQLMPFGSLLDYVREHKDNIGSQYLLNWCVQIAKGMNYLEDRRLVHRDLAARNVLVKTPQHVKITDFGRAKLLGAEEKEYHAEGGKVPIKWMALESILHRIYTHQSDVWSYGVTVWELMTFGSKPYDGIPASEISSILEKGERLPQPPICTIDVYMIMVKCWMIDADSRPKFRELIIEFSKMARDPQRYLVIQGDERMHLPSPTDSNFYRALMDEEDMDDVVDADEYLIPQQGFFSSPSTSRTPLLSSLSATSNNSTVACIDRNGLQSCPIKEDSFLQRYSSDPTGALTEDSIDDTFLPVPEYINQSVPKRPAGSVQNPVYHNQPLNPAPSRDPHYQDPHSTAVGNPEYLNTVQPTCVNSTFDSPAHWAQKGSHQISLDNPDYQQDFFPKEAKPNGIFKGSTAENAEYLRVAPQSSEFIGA
Experimental: as §1, §2

Chain of EGFR WT (P00533 25-1210): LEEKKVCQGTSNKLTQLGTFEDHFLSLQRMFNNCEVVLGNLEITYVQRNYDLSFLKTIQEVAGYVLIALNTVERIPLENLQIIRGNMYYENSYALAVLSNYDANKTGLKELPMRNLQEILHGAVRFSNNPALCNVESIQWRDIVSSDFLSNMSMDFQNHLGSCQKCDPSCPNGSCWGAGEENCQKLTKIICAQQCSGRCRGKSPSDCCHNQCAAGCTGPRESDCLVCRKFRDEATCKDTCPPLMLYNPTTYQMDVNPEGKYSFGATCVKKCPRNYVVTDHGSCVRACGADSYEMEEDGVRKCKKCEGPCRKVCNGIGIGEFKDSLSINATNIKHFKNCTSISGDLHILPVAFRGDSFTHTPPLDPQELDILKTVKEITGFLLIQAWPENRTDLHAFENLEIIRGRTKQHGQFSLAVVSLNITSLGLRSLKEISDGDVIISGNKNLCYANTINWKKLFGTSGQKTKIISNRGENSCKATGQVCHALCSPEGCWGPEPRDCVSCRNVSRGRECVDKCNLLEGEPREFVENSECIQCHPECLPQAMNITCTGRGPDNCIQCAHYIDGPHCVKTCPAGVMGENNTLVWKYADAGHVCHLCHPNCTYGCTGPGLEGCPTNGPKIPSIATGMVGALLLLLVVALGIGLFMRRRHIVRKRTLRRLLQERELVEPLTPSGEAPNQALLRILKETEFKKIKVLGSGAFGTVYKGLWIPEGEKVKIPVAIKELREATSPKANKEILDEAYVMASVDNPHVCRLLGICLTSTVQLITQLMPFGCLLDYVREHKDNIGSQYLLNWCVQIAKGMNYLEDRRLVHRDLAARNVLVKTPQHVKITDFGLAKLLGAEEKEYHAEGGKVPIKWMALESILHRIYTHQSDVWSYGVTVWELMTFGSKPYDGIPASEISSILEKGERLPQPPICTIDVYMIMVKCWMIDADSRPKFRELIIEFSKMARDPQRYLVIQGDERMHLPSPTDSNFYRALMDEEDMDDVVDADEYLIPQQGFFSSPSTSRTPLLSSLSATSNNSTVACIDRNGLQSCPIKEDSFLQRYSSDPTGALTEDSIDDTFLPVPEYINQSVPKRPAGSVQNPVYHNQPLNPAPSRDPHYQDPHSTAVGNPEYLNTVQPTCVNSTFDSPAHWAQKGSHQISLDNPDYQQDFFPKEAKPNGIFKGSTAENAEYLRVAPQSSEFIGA

Row | Structure (SMILES) | IC50 (EGFR WT) [nM] | IC50 [1] [nM] | IC50 (EGFR L858R mutant) [nM] | IC50 (EGFR Δ746-750 mutant) [nM] | IC50 (EGFR L858R/T790M mutant) [nM] | IC50 (EGFR (D770_N771insNPG)) [nM] | IC50 [2] [nM]
1 | Cc1nn([C@H]2C[C@@H](N(C)CCN(C)C)C2)c2c1/C=C/c1n[nH]c3ccc(cc13)-c1cnn(C)c1OCCCO2 [Example 103, N^1-{(1s,3s)-3-[(17E)-8,16-dimethyl-2,8,11,12-tetrahydro-10H,14H-3,5-etheno[1,5]dioxacyclopentadecino[10,11-c:15,14-c′:6,7-c″]tripyrazol-14-yl]cyclobutyl}-N^1,N^2,N^2-trimethylethane-1,2-diamine] | 358 | 171 | 103 | 105 | 11.5 | 344 | 40.4
2 | C[C@H]1CN(C)Cc2c(c(O[C@H]3CCN(S(C)(=O)=O)C3)nn2CCO)/C=C/c2n[nH]c3ccc(cc23)-c2cnn(C)c2O1 [Example 182, 2-[(10S,17E)-16-{[(3S)-1-(methanesulfonyl)pyrrolidin-3-yl]oxy}-8,10,12-trimethyl-2,8,10,11,12,13-hexahydro-14H-3,5-ethenotripyrazolo[3,4-f:3′,4′-j:4″,3″- n][1,4]oxazacyclopentadecin-14-yl]ethan-1-ol] | 139 | 6.6 | 24.7 | 24 | 0.54 | 300 | 1.37
3 | Cc1nn(CCN2CCCC2)c2c1/C=C/c1n[nH]c3ccc(cc13)-c1cnn(C)c1C(C)OCCO2 (stereo not shown) [Example 100, (17E)-8,9,16-trimethyl-14-[2-(pyrrolidin-1-yl)ethyl]-2,8,9,11,12,14-hexahydro-3,5-etheno[1,4]dioxacyclopentadecino[11,10-c:15,14-c′:6,7-c″]tripyrazole] | 290 | 91 | 87.7 | 198 | 10.4 | 250 | 19.2
4 | COCc1nn(C)c2c1/C=C/c1n[nH]c3ccc(cc13)-c1cnn(C)c1OCCCO2 [Ex. 11, (17E)-16-(methoxymethyl)-8,14-dimethyl-2,11,12,14-tetrahydro-8H,10H-3,5-etheno[1,5]dioxacyclopentadecino[10,11-c:15,14-c′:6,7-c″]tripyrazole] | > 1000 | 798 | 1580 | 850 | 153 | > 1000 | 218
5 | Cn1ncc2c1OCCN1CC[C@@H](Oc3ccccc3/C=C/c3n[nH]c4ccc-2cc34)C1=O [Example 70, (10R,16E)-3-methyl-3,5,6,9,10,19-hexahydro-8H-20,22-etheno-7,10-methanodipyrazolo[3,4-i:4,3′-m][1,8,5]benzodioxazacyclooctadecin-25-one] | 98.7 | 27.1 | 70.1 | 32.3 | 3.81 | 73.6 | 3.68
6 | CCc1nn(CCN2CC[C@H](O)C2)c2c1/C=C/c1n[nH]c3ccc(cc13)-c1cnn(C)c1OCCCO2 [Example 69, (3S)-1-{2-[(17E)-16-ethyl-8-methyl-2,8,11,12-tetrahydro-10H,14H-3,5-etheno[1,5]dioxacyclopentadecino[10,11-c:15,14-c′:6,7-c″]tripyrazol-14-yl]ethyl}pyrrolidin-3-ol] | 405 | 92.4 | 121 | 93 | 14.9 | 306 | 25.6
7 | Cc1c2c(nn1C1CCN(C)C1)OCCN(C)Cc1c(cnn1C)-c1ccc3[nH]nc(c3c1)/C=C/2 (stereo not shown) [Example 117, (17E)-8,10,16-trimethyl-14-(1-methylpyrrolidin-3-yl)-2,9,10,11,12,14-hexahydro-8H-3,5-ethenotripyrazolo[3,4-f:4′,3′-j:4″,3″-n][1,4]oxazacyclopentadecine] | 70.1 | 8.36 | 20 | 6.91 | 2.2 | 53.5 | 6.18
8 | Cc1nn(CCO)c2c1/C=C/c1n[nH]c3ccc(cc13)-c1c(C)nn(C)c1O[C@@H](C)CN(C)C2 [Example 138, 2-[(10S,17E)-6,8,10,12,16-pentamethyl-2,8,10,11,12,13-hexahydro-14H-3,5-ethenotripyrazolo[3,4-f:3′,4′-j:4″,3″-n][1,4]oxazacyclopentadecin-14-yl]ethan-1-o] | 23.8 | 1.4 | 3.5 | 3.64 | 0.61 | 85.2 | 0.55
9 | C[C@H]1CN(C)Cc2nn3c(c2/C=C/c2n[nH]c4ccc(cc24)-c2cnn(C)c2O1)CN(CCS(C)(=O)=O)CC3 [Example 166, (10S,20E)-18-[2-(methanesulfonyl)ethyl]-8,10,12-trimethyl-2,8,10,11,12,13,16,17,18,19-decahydro-3,5-ethenopyrazino[1′,2′:1,5]pyrazolo [3,4-f]dipyrazolo[3,4-j:4′,3′-n][1,4]oxazacyclopentadecine] | 99.8 | 8.1 | 12.8 | 15 | 0.72 | 45.6 | 0.55
10 | CCc1nn(C)c2c1/C=C/c1n[nH]c3ccc(cc13)-c1cnn(C)c1CN(C)CCO2 [Example 110, (17E)-16-ethyl-8,10,14-trimethyl-2,9,10,11,12,14-hexahydro-8H-3,5-ethenotripyrazolo[3,4-f:4′,3′-j:4″,3″- n][1,4]oxazacyclopentadecine] | 150 | 28.5 | 30.4 | 14.4 | 4.99 | 112 | 8.54

Continued, values first:

Row | IC50 (EGFR WT) [nM] | IC50 [1] [nM] | IC50 (EGFR L858R mutant) [nM] | IC50 (EGFR Δ746-750 mutant) [nM] | IC50 (EGFR L858R/T790M mutant) [nM] | IC50 (EGFR (D770_N771insNPG)) [nM] | IC50 [2] [nM] | Structure (SMILES)
11 | 264 | 15.2 | 21.9 | 33.7 | 0.77 | 383 | 1.01 | Cc1c2c(nn1C[C@@H](C)O)CN(C)C[C@H](C)Oc1c(cnn1C)-c1ccc3[nH]nc(c3c1)/C=C/2 [Example 128, (2R)-1-[(10S,17E)-8,10,12,16-tetramethyl-2,8,10,11,12,13-hexahydro-15H-3,5-ethenotripyrazolo[3,4-f:3′,4′-j:4″,3″-n][1,4]oxazacyclopentadecin-15-yl]propan-2-ol]
12 | 581 | 89.4 | 101 | 89.7 | 6.86 | 678 | 3.27 | Cc1c2c(nn1CCO)CN(C)C[C@H](C)Oc1c(cnn1C)-c1ccc3[nH]nc(c3c1)/C=C/2 [Example 60, 2-[(10S,17E)-8,10,12,16-tetramethyl-2,8,10,11,12,13-hexahydro-15H-3,5-ethenotripyrazolo[3,4-f:3′,4′-j:4″,3″- n][1,4]oxazacyclopentadecin-15-yl]ethan-1-ol]
13 | 488 | 67.4 | 96.8 | 69.9 | 8.66 | 727 | 9.91 | C[C@H]1CN(C)Cc2cnn(C)c2/C=C/c2n[nH]c3ccc(cc23)-c2cnn(C)c2O1 [Example 113, (10S,17E)-8,10,12,16-tetramethyl-2,10,11,12,13,16-hexahydro-8H-3,5-ethenotripyrazolo[4,3-f:3′,4′-j:4″,3″-n][1,4]oxazacyclopentadecine]
14 | 419 | 27.5 | 105 | 139 |  | 286 | 26.4 | CCc1nn(C)c2c1/C=C/c1n[nH]c3ccc(cc13)-c1cnn(C)c1OCC[C@@H](C)O2 [Ex. 15, (12R,17E)-16-ethyl-8,12,14-trimethyl-2,11,12,14-tetrahydro-8H,10H-3,5-etheno[1,5]dioxacyclopentadecino[10,11-c:15,14-c′:6,7-c″]tripyrazole]
